Experimental data as given in US8911952B2, “Method for integrin ligand discovery” (STC. UNM, priority 2010, dated 2014).
Structures can show the parent of a compound that is named as a salt. Marks after values point to notes of the source that are not given here.

Key:
[1] = tested on: hematopoietic stem and progenitor cells (HSPCs); assay: Mobilization of hematopoietic stem and progenitor cells into the peripheral blood; settings: mouse; for CFU/ml in peripheral Blood / WBC count/ml × 10^6: intraperitoneal, one hour prior to blood collection, thioridazine hydrochloride 1.25 mg/kg, AMD3100 5 mg/kg, Mean ± S.E.
VLA-4 [2] = biological target: T1, VLA-4 (Homo sapiens, UniProt P05556+P13612); assay: HUTS-21 antibody binding (ligand induced epitope exposure) on U937 cells; assay type: cell-based; design: host or cells: U937 (human histiocytic lymphoma); in part of the real-time experiments U937 stably transfected with a non-desensitizing FPR mutant, where VLA-4 itself is endogenous
Procedure: U937 cells were suspended in the HEPES buffer (see above) 1×10^6 cells/ml, 100 μl aliquots (10^5 cells) were incubated with different concentrations of unlabeled compounds for 10 min. Next, 20 μl of PE-labeled HUTS-21 antibodies was added and cells were incubated for additional […] at room temperature. Next, cells were washed with 1 ml of HEPES buffer, resuspended in 300-500 μl of buffer and analyzed by flow cytometry (FL2 channel, BD FACScan). The data were plotted as mean channel fluorescence vs. the concentration of the compound. The data were fitted to a sigmoidal dose-response equation. To determine the level of nonspecific binding, cells were stained in parallel with the isotype control antibodies.

LFA-1 = biological target: T2, LFA-1 (Homo sapiens, UniProt P05107+P20701); assay: Binding of MEM-148 mAbs to U937 cells (epitope exposure); assay type: cell-based
T2 construct: host or cells: U937 (human histiocytic lymphoma)
From the text: In order to confirm that similar results can be obtained with other integrins we have constructed a 3D model of αLβ2-integrin (LFA-1, CD11a/CD18). Amino acid residue critical for the binding of MEM-148 mAb to β2-integrin subunit (Pro 374) was highlighted as green space fill (1). This model was compared to the model of β1-integrin subunit, where critical residues (Ser370, Glu371, and Lys417) were highlighted in a similar way (2) (FIG. 8). It is worth noting that critical residues for both mAbs are positioned in a similar way on the inner side of the hybrid domain. Since the outward movement of the hybrid domain, induced by a ligand binding (at least for β1-integrin (2)), can be used to report occupancy of the ligand binding pocket (3), we decided to use MEM-148 mAbs to probe LFA-1 integrin conformation upon ligand binding.
To test this possibility, two αLβ2-integrin ligands were synthesized as described previously. Compound 3 (Genentech) and XVA143 (Roche) are shown to be LFA-1 specific antagonists (4) FIG. 9.

VLA-4 [3] = biological target: T1, VLA-4; assay: Detection of VLA-4 allosteric antagonists: HUTS-21 binding inhibition screen of the Prestwick Chemical Library
Procedure: 5 μl RPMI was added to columns 2-24. Column 1 was left empty for flow cytometry data binning purposes. Test compounds in DMSO (Prestwick Chemical Library, PCL) were added and mixed (0.1 μl of 1 mM stock solution). […] Compounds were added to 320 wells (columns 3-22). […] Columns 23, 24 were used for the positive control (no test compounds added). Next, 5 μl aliquots of U937 cells were suspended in RPMI 1640 at 3×10^6 cells/ml, loaded in 384 well plates, and mixed (1×10^6 cells/ml final). Cells were incubated for 10 min at RT. This time is sufficient for the binding of a small molecule (˜1 kD) at 10 μM at RT. […] Plates were incubated for 1 hour at 37° C. According to the real-time kinetic studies this time was sufficient to reach equilibrium. Next, wells were sampled using the high throughput flow cytometry platform (HyperCyt) at UNMCMD.
After data acquisition by the flow cytometer (CyAn™ ADP), proprietary software was used to analyze the data files (IDLQuery, at UNMCMD, developed by Bruce Edwards). The data were exported into a Microsoft Excel spreadsheet template, and the value for antibody binding inhibition (%) was calculated for each well as follows: % Inhibition=100(1−((MCFtest−MCFneg.control)/MCFpos.control−MCFneg.control))), where, MCF is mean channel fluorescence of cells with test compounds, and positive or negative control wells.

VLA-4 [4] = biological target: T1, VLA-4; assay: Real-time binding of HUTS-21 antibodies to U937 cells; assay type: cell-based; design: host or cells: U937 (human histiocytic lymphoma); in part of the real-time experiments U937 stably transfected with a non-desensitizing FPR mutant, where VLA-4 itself is endogenous; settings: 1 nM LDV in the absence of the compound
Procedure: the Ability of a Flow Cytometer to Discriminate between free and bound fluorescent ligand in a homogeneous assay was used to determine the binding kinetics of mAbs in real-time (15; 26). Cells (10^6 cells/ml) were removed from ice and warmed in HEPES buffer containing 0.1% HSA for 10 min at 37° C. […] Screening hits at saturating concentration (10-30 μM final) or DMSO (vehicle) were added at point 0.

[5] = biological target: VLA-4 (very late antigen 4, CD49d/CD29, alpha4beta1 integrin) (human) (UniProt P13612); assay: flow cytometry on U937 cells, PE-HUTS-21 with rising LDV
Sequence of VLA-4 (very late antigen 4, CD49d/CD29, alpha4beta1 integrin) (human) (P13612 34-1032, chain 1 of 2): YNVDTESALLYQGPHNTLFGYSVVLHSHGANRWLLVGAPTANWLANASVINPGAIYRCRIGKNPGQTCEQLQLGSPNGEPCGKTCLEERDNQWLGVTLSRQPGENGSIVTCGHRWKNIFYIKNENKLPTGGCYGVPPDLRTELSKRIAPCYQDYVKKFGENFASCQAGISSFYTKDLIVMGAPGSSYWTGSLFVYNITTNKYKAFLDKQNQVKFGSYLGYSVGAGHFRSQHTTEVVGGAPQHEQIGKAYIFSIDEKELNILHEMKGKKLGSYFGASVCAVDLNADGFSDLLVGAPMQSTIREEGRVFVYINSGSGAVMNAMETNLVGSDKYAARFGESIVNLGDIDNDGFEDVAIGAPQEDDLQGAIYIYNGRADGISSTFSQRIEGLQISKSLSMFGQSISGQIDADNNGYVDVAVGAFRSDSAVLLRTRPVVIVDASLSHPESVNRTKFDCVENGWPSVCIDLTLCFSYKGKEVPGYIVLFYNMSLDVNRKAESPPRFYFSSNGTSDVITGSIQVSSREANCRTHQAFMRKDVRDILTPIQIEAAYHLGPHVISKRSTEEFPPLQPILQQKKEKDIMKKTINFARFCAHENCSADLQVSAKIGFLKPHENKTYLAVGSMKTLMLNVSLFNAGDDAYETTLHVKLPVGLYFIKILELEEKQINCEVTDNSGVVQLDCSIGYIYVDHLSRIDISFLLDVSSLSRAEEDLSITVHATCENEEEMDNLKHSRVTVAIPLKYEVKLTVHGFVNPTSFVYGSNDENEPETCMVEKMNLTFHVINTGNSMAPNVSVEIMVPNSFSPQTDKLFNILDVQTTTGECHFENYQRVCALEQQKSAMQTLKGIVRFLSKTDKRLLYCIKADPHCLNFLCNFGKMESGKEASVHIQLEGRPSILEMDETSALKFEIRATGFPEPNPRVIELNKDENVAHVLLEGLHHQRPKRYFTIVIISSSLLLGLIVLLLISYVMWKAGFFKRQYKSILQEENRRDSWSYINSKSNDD
Sequence of VLA-4 (very late antigen 4, CD49d/CD29, alpha4beta1 integrin) (human) (P05556 21-798, chain 2 of 2, further chain): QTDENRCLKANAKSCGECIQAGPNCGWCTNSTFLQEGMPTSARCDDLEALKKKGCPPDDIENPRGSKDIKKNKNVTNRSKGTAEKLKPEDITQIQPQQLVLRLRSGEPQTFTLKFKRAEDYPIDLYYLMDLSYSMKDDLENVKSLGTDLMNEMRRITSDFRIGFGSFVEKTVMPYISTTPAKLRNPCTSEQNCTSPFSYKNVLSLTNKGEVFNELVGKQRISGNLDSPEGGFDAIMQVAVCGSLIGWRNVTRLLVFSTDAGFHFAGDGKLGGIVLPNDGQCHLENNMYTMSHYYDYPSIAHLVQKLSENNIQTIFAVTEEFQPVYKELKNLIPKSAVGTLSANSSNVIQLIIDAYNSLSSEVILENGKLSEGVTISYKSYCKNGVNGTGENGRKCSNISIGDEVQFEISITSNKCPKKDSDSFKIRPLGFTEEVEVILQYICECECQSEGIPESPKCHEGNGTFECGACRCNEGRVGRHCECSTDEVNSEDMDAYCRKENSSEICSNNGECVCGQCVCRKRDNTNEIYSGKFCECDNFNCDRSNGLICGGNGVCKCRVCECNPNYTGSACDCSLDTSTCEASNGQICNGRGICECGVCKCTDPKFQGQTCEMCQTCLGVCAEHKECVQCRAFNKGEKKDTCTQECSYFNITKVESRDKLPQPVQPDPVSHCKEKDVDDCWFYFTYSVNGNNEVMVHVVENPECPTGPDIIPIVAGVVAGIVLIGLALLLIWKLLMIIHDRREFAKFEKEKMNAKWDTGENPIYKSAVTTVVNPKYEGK

T1 sequence (P13612 34-1032): as the sequence (P13612 34-1032, chain 1 of 2) above
T1 sequence (P05556 21-798): as the sequence (P05556 21-798, chain 2 of 2, further chain) above
T2 sequence (P20701 26-1170): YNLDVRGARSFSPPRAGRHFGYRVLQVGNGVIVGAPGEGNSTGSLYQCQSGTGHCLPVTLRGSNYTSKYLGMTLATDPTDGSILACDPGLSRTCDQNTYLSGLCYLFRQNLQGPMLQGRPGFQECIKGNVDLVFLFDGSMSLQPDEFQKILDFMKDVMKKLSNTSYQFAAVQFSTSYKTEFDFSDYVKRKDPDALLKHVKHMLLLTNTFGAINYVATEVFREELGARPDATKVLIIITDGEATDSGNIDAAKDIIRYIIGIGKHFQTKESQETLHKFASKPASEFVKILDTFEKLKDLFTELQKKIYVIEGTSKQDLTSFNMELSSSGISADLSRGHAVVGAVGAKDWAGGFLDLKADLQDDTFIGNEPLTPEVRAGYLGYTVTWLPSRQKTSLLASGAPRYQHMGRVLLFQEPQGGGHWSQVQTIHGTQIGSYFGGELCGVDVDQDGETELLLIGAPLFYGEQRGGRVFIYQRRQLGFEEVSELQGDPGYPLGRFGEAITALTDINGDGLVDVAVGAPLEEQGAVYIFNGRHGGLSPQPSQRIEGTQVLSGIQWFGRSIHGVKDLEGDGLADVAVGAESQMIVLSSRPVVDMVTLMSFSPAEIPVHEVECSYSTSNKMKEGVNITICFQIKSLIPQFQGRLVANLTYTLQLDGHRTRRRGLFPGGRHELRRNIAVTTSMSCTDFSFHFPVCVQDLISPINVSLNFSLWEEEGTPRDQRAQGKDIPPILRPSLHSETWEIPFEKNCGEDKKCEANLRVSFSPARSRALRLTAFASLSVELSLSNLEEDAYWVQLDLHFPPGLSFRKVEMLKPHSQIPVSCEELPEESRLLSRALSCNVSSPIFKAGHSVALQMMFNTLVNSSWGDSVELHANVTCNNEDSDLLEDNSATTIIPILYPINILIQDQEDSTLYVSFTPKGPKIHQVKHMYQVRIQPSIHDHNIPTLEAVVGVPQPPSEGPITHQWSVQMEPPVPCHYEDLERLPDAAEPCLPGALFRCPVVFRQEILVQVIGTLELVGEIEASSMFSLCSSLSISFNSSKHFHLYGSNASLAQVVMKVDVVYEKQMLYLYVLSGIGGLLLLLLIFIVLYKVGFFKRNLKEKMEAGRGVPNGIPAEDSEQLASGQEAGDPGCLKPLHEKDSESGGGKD
T2 sequence (P05107 23-769): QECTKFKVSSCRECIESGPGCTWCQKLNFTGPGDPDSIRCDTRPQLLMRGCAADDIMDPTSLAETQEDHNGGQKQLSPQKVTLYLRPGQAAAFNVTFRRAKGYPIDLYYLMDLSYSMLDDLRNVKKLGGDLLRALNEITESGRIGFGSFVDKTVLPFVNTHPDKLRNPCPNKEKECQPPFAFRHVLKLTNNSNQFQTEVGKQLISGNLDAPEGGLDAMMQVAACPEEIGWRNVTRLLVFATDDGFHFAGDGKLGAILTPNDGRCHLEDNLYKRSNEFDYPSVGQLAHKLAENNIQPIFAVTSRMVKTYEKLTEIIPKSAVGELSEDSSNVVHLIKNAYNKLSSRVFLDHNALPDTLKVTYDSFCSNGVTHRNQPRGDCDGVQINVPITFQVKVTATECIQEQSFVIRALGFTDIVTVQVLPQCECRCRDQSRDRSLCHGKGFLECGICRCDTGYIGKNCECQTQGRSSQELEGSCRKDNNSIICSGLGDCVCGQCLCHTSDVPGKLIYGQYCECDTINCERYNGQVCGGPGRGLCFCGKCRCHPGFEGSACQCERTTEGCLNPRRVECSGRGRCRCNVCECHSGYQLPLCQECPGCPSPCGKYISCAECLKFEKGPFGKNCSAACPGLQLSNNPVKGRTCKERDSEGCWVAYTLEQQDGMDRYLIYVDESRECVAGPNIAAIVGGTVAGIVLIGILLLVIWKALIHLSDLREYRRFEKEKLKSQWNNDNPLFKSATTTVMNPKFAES

Q: How did the WBC count increase ([1]; AMD3100 5 mg/kg intraperitoneal, versus vehicle) turn out when `c1cc(CN2CCCNCCNCCCNCC2)ccc1CN1CCCNCCNCCCNCC1` [AMD3100, AMD3100 octahydrochloride] was run?
A: Its WBC count increase is ~2.1 fold.

Q: And the “CFU/ml in peripheral Blood” value [1]?
A: Its value is 511.8 ± 78.8^a CFU/ml.

Q: And the “WBC count/ml × 10^6” value [1]?
A: The value was 7.8 ± 0.7^b count/ml × 10^6.

Q: With `COc1cccc(OC)c1-c1ccc(C[C@H](NC(=O)c2c(Cl)cccc2Cl)C(=O)O)cc1` [TR14035, N-(2,6-dichlorobenzoyl)-(L)-4-(2′,6′-bis-methoxyphenyl)phenylalanine] as the compound, how does the “LIBS (HUTS-21 epitope) exposure” value (VLA-4 [2]) read?
A: The value was “resulted in the LIBS exposure”.

Q: Which results are given for `CSc1ccc2c(c1)N(CCC1CCCCN1C)c1ccccc1S2` (stereo not drawn) [Thioridazine, Thioridazine hydrochloride]?
A: CFU/ml in peripheral Blood [1]: 216.8 ± 42.1 CFU/ml; WBC count/ml × 10^6 [1]: 3.0 ± 0.3 count/ml × 10^6

Q: For `O=C(NCc1cccc(O)c1)c1cc(Cl)c(C(=O)N[C@@H](CNC(=O)c2cc(O)cc(O)c2)C(=O)O)c(Cl)c1` [XVA143], which “exposure of MEM-148 epitope” value (LFA-1) is on record?
A: Its value is “induced exposure of MEM-148 epitope”.

Q: For `O=C(CCCN1CCC(O)(c2ccc(Cl)cc2)CC1)c1ccc(F)cc1` [haloperidol], which “antagonistic activity in the HUTS-21 based screen” value (from here on “antagonistic activity”) (VLA-4 [3]) is on record?
A: The value was “did not show any antagonistic activity”.

Q: With `CCN(CC)CCNC(=O)c1cc(Cl)c(N)cc1OC` [metoclopramide] as the compound, how does the “antagonistic activity” value (VLA-4 [3]) read?
A: Its value is “did not show any antagonistic activity”.

Q: Which “LDV concentration required to induce HUTS-21 binding in the presence of the compound” value (VLA-4 [4]) does the source give for `OCCN1CCN(CCCN2c3ccccc3Sc3ccc(Cl)cc32)CC1` [perphenazine] here?
A: Its value is 0.1 µM.

Q: `CCN1CCCC1CNC(=O)c1cc(S(N)(=O)=O)ccc1OC` (stereo not drawn) [sulpiride] was tested. Which “antagonistic activity” value (VLA-4 [3]) did it give?
A: Its value is “did not show any antagonistic activity”.

Q: How did the signal to background ratio [5] turn out when “Mouse anti-human CD29, HUTS-21 (PE) (antibody)” was run?
A: Its signal to background ratio is 10.
